“And” between values parts separate entries of the source, which are not always exact repeats. Equal values may be shown once. Read-outs that look alike come from different tables or passages of the source.
Assays:
ovalbumin = assay: Stimulation of antiovalbumin antibody production; assay type: in vivo, BDF1 female mice; conditions: 50 μg AGP + 50 μg ovalbumin; second immunization day 21; bled 14 days after second injection
Procedure: BDF1 female mice (8 per group) were immunized with 0.2 ml of emulsions containing 50 μg of the AGPs +50 μg of ovalbumin. A second immunization was administered 21 days post primary. Each mouse was bled 14 days after the second injection.

[1] = Fever response in rabbits (pyrogenicity); assay type: in vivo; conditions: rabbits
Procedure: The AGP compounds were also evaluated for their tendency to induce a fever response in rabbits. Each compound was formulated in 10% (v/v) ethanol/water solution at 100 mg/ml, then diluted with D5W to the desired concentration. The material was injected at 3 ml/kg body weight into 3 rabbits. The rise in core temperature of the rabbits was recorded.

influenza A/HK/68 = assay type: in vivo, ICR mice
IL-1β = assay: Cytokine induction in human whole blood ex vivo culture: IL-1β (ELISA); assay type: cell-based; conditions: 4 hr
Procedure: (§1) AGP compounds were solubilized in 10% EtOH-water and diluted to various concentrations. Fifty μl of each dilution were added to 450 μl of whole human blood. Controls were treated with culture media (RPMI). The reaction mixture was incubated at 37° C. for 4 hr with constant mixing on a rotator. Sterile PBS (1.5 ml) was added to the reaction mixture, the cells were centrifuged and the supernatents removed for cytokine testing. The concentration of TNF-α and IL-1β in each supernatent was determined using immunoassay ELISA kits from R&D Systems.

E.G7 (OVA) cells = conditions: s.c. 25 μg OVA in AGP preparation, spleen cells 21 days later
TNF-α = assay: Cytokine induction in human whole blood ex vivo culture: TNF-α (ELISA); assay type: cell-based; conditions: 4 hr
Procedure: as §1

tetanus toxoid [2] = conditions: mouse, in vivo, sc
tetanus toxoid [3] = test system: tetanus toxoid; design: species or system BFD1 (C57B1/6X DBA/2) female mice; conditions: mouse, in vivo
[4] = 25 μg AGP + 1 HAU FI-Flu in 0.2% TEoA, once, bled day 14, Table 11

N-[(R)-3-Tetradecanoyloxytetradecanoyl]-O-[2-Deoxy-4-O-phosphono-2-[(R)-3-tetradecanoyloxytetradecanoylamino]-3-O-[(R)-3-tetradecanoyloxytetradecanoyl]-β-D-glucopyranosyl]-L-serine Triethylammonium Salt [B11]
Anti-ovalbumin IgG1 T/C (ovalbumin): 1.6
Anti-ovalbumin IgG1 Titer (ovalbumin): 2650
Anti-ovalbumin IgG2a T/C (ovalbumin): 1.7
Anti-ovalbumin IgG2a Titer (ovalbumin): 550
Anti-ovalbumin IgG2b T/C (ovalbumin): 1.6
Anti-ovalbumin IgG2b Titer (ovalbumin): 375
Anti-ovalbumin IgM T/C (ovalbumin): 1.3
Anti-ovalbumin IgM Titer (ovalbumin): 250
Anti-ovalbumin Total Ig T/C (ovalbumin): 0.7
Anti-ovalbumin Total Ig Titer (ovalbumin): 150
PY[…] [1]: 0.3 to 0.6 µg/kg
Percent Survival (influenza A/HK/68; mouse, in vivo): 30%
Titer^−1 IgG1 (influenza A/HK/68; mouse, in vivo): 200
Titer^−1 IgG2a (influenza A/HK/68; mouse, in vivo): 1600
Titer^−1 IgG2b (influenza A/HK/68; mouse, in vivo): 400
Titer^−1 Total IgG (influenza A/HK/68; mouse, in vivo): 1600
IL-1β (IL-1β; Dosage 100 ng/ml, Table 17): 59.8 pg/mL
IL-1β (IL-1β; Dosage 500 ng/ml, Table 17): 55.8 pg/mL
IL-1β (IL-1β; Dosage 1000 ng/ml, Table 17): 54.5 pg/mL
IL-1β (IL-1β; Dosage 5000 ng/ml, Table 17): 61.7 pg/mL
IL-1β (IL-1β; Dosage 10,000 ng/ml, Table 17): 62.3 pg/mL
% Cytotoxicity (E.G7 (OVA) cells; E:T 12.5:1): 5%
% Cytotoxicity (E.G7 (OVA) cells; E:T 25:1): 8%
% Cytotoxicity (E.G7 (OVA) cells; E:T 50:1): 14%
TNF-α (TNF-α; Dosage 100 ng/ml, Table 17): 127 pg/mL
TNF-α (TNF-α; Dosage 500 ng/ml, Table 17): 125 pg/mL
TNF-α (TNF-α; Dosage 1000 ng/ml, Table 17): 115 pg/mL
TNF-α (TNF-α; Dosage 5000 ng/ml, Table 17): 139 pg/mL
TNF-α (TNF-α; Dosage 10,000 ng/ml, Table 17): 181 pg/mL
Anti-tetanus toxoid IgG1 T/C (tetanus toxoid [2]): 1.86
Anti-tetanus toxoid IgG1 Titer (tetanus toxoid [2]): 400,000
Anti-tetanus toxoid IgG2a Titer (tetanus toxoid [2]): 10,450
Anti-tetanus toxoid IgG2a titer (tetanus toxoid [2]): 5900
Anti-tetanus toxoid IgG2b Titer (tetanus toxoid [2]): 26,800
Anti-tetanus toxoid IgG2b titer (tetanus toxoid [2]): 8400
Anti-tetanus toxoid IgM T/C (tetanus toxoid [2]): 4.75 and 3.3
Anti-tetanus toxoid IgM Titer (tetanus toxoid [2]): 7,600
Anti-tetanus toxoid IgM titer (tetanus toxoid [2]): 5120
Anti-tetanus toxoid Total IgG T/C (tetanus toxoid [2]): 3.6
Anti-tetanus toxoid Total IgG Titer (tetanus toxoid [2]): 23,200

CCCCCCCCCCCC(=O)O[C@H](CCCCCCCCCCC)CC(=O)N[C@H]1[C@H](OC[C@H](NC(=O)C[C@@H](CCCCCCCCCCC)OC(=O)CCCCCCCCCCC)C(=O)O)O[C@H](CO)[C@@H](OP(=O)(O)O)[C@@H]1OC(=O)C[C@@H](CCCCCCCCCCC)OC(=O)CCCCCCCCCCC.CCN(CC)CC [B12, N-[(R)-3-Dodecanoyloxytetradecanoyl]-o-[2-Deoxy-4-O-phosphono-2-[(R)-3-dodecanoyloxytetradecanoylamino]-3-O-[(R)-3-dodecanoyloxytetradecanoyl]-β-D-glucopyranosyl]-L-serine Triethylammonium Salt]
IgG1 T/C (tetanus toxoid [3]): 90.08 and 141.22 and 145.21 and 81.12 and 84.11
IgG1 Titer (tetanus toxoid [3]): 165,486 and 259,429 and 266,743 and 149,029 and 154,514
Total Ig T/C (tetanus toxoid [3]): 326.02 and 368.55 and 403.98 and 248.06 and 489.92
Total Ig Titer (tetanus toxoid [3]): 42,057 and 47,543 and 52,114 and 32,000 and 63,200
Titer^−1 IgG1 (influenza A/HK/68; [4]): 200
Titer^−1 IgG2a (influenza A/HK/68; [4]): 100
Titer^−1 IgG2b (influenza A/HK/68; [4]): 200
Titer^−1 Total IgG (influenza A/HK/68; [4]): 200
Percent Survival (influenza A/HK/68; […], mortality 21 days, Table 11): 0%
IL-1β (IL-1β; Dosage 1000 ng/ml, Table 19): 175 pg/mL
IL-1β (IL-1β; Dosage 5000 ng/ml, Table 19): 153 pg/mL
IL-1β (IL-1β; Dosage 10,000 ng/ml, Table 19): 135 pg/mL
% Cytotoxicity (E.G7 (OVA) cells; E:T 12.5:1): 4%
% Cytotoxicity (E.G7 (OVA) cells; E:T 25:1): 7%
% Cytotoxicity (E.G7 (OVA) cells; E:T 50:1): 13%
TNF-α (TNF-α; Dosage 1000 ng/ml, Table 19): 863 pg/mL
TNF-α (TNF-α; Dosage 5000 ng/ml, Table 19): 957 pg/mL
TNF-α (TNF-α; Dosage 10,000 ng/ml, Table 19): 1017 pg/mL
Anti-tetanus toxoid IgG2a T/C (tetanus toxoid [2]): 139.4
Anti-tetanus toxoid IgG2a titer (tetanus toxoid [2]): 2370
Anti-tetanus toxoid IgG2b T/C (tetanus toxoid [2]): 149
Anti-tetanus toxoid IgG2b titer (tetanus toxoid [2]): 9840
Anti-tetanus toxoid IgM T/C (tetanus toxoid [2]): 3.1
Anti-tetanus toxoid IgM titer (tetanus toxoid [2]): 4800

Source: patent publication US7541020B2, “Aminoalkyl glucosaminide phosphate compounds and their use as adjuvants and immunoeffectors” (priority 1997, dated 2009)
